Laboratory results published in patent US20040023884A1, “Biologically active peptides from functional domains of bactericidal/permeability-increasing protein and uses thereof” (priority 1993, published 2004).
≈ marks a conversion by molar mass, not a printed value. Bridge positions count the residues as written; N and C are the ends. Square brackets hold non-standard residues; d marks the D form. Ends that are not written are not given here. Peptide text beside a SMILES is read from it. 1Nal = N[C@@H](Cc1cccc2ccccc12)C(=O)O

Columns and labels:
[1] = tested on: E. coli 0111:B4 (smooth) bacteria; experiment: Radial diffusion bactericidal assay, E. coli 0111:B4; assay type: cell-based; settings: radial diffusion; PROBIT analysis; E. coli O111:B4 (smooth)
[2] = 3H-heparin binding assay (affinity and capacity); settings: for Heparin Capacity: heparin bound at saturation; for Kd: read-out: Heparin Affinity
In short: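 Peptide fragments were bound to PVDF-membrane wells and incubated with 3H-heparin in blocking buffer for 1 h at 4 °C. After washing, bound radioactivity was quantified by liquid scintillation counting, with BSA background subtracted; rBPI23 served as positive control.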

[3] = tested on: rough mutant E. coli J5 bacteria; experiment: Radial diffusion bactericidal assay, E. coli J5; assay type: cell-based; settings: for bactericidal activity (in words) / pmol added to well to achieve a 30 mm^2 bactericidal zone, E. coli J5: radial diffusion; for bactericidal activity (in words): E. coli J5; for pmol added to well to achieve a 30 mm^2 bactericidal zone, E. coli J5: PROBIT analysis, E. coli J5 (rough)
In short: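 Log-phase bacteria, washed in 10 mM sodium phosphate pH 7.4, were seeded at 4×10^6 CFU/mL in underlayer agarose. BPI fragments (5 or 10 μL) went into 3 mm wells for 3 h at 37° C., then overlayer agarose was added. After overnight 37° C. incubation, clearing zones were measured by micrometer.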

RAW 264.7 cells = experiment: LPS neutralization cellular proliferation assay, RAW 264.7 cells; assay type: cell-based, mouse
Procedure: In this assay, mouse RAW 264.7 cells (ATCC Accession No. T1B71), maintained in RPMI 1640 media (GIBCO), supplemented with 10 mM HEPES buffer (pH 7.4), 2 mM L-glutamine, penicillin (100U/mL), streptomcin (100 μg/mL), 0.075% sodium bicarbonate, […] 2-mercaptoethanol and 10% fetal bovine serum (Hyclone, Inc., Logan, Utah), were first induced by incubation in the presence of 50U/mL recombinant mouse y-interferon (Genzyme, Cambridge, Mass.) for 24 h prior to assay. Induced cells were then mechanically collected and centrifuged at 500×g at 4° C. and then resuspended in 50 mL RPMI 1640 media (without supplements), re-centrifuged and again resuspended in RPMI 1640 media (without supplements). The cells were counted and their concentration adjusted to 2×10^5 cells/mL and 100 μL aliquots were added to each well of a 96-well microtitre plate. The cells were then incubated for about 15 hours with E. coli O113 LPS (Control Standard. Assoc. of Cape Cod. Woods Hole, Mass.), which was added in 100 μL/well aliquots at a concentration of […] in serum-free RPMI 1640 media (this concentration being the result of titration experiments in which LPS concentration was varied between 50 pg/mL and 100 ng/mL). This incubation was performed in the absence or presence of BPI functional domain peptides in varying concentrations between 25 ng/mL and 50 μg/mL. Recombinant human BPI was used as a positive control at a concentration of 1 μg/mL. Cell proliferation was quantitatively measured by the addition of 1 μCi/well [^3H]-thymidine 5 hours after the time of initiation of the assay. After the 15-hour incubation, labeled cells were harvested onto glass fiber filters with a cell harvester (Inotech Biosystems, EQ-384, Sample Processing and Filter Counting System, Lansing, Mich.).

Staphylococcus aureus = experiment: Radial diffusion bactericidal assay, Staphylococcus aureus; assay type: cell-based; settings: radial diffusion; PROBIT analysis; S. aureus
Candida albicans = assay type: cell-based

Compound	pmol added to well to achieve a 30 mm^2 bactericidal zone, E. coli O111:B4 [1]	heparin binding capacity (in words) [2]	Heparin Capacity [2] [ng]	Kd [2] [nM]	bactericidal activity (in words) [3]	pmol added to well to achieve a 30 mm^2 bactericidal zone, E. coli J5 [3]	EC50 (peptide concentration at which the growth inhibitory effect of LPS was reversed by 50%) (RAW 264.7 cells) [µg/mL]	IC50 (peptide concentration at which RAW cell growth was inhibited by 50%) (RAW 264.7 cells)	pmol added to well to achieve a 30 mm^2 bactericidal zone, S. aureus (Staphylococcus aureus)	behaviour in the RAW 264.7 proliferation assay (in words) (RAW 264.7 cells)	activity of position 95 substitution variants (in words) ([3]; activity not further specified)	MIC C. alb (Candida albicans) [µg/mL]
KWKAAARFLKKWKAQKRFLK [BPI.46]	2,970.26 pmol	extremely high heparin capacity	321.1	1070	highly bactericidal	186.69 pmol	1.9 ± 1.9	18.8 ± 0.8 µg/mL	3,810,752.30 pmol			
IKISGKWKAFKRFLK [BPI.81]	3,018.90 pmol		318.4	335		283.84 pmol		14 ± 0.2 µg/mL	9,477.20 pmol	unable to reverse the growth inhibitory effect of LPS		
KSKVGWLIQLFHKK [BPI.13p]							2.0 ± 0.3	>50 µg/mL				
IKISGKWKAQFRFLK [BPI.73]	3,290.60 pmol	extremely high heparin capacity	413.4	227	highly bactericidal	57.28 pmol	22 ± 10	— (No proliferation decrease up to 50 μg/ml)	2,313,133.50 pmol		improved activity compared with the alanine substitution species	
CC[C@H](C)[C@H](N)C(=O)N[C@@H](CCCCN)C(=O)N[C@H](C(=O)N[C@@H](CO)C(=O)NCC(=O)N[C@@H](CCCCN)C(=O)N[C@@H](Cc1cccc2ccccc12)C(=O)N[C@@H](CCCCN)C(=O)N[C@@H](C)C(=O)N[C@@H](CCC(N)=O)C(=O)N[C@@H](Cc1ccccc1)C(=O)N[C@@H](CCCNC(=N)N)C(=O)N[C@@H](Cc1ccccc1)C(=O)N[C@@H](CC(C)C)C(=O)N[C@@H](CCCCN)C(=O)N[C@@H](CCCCN)C(=O)N[C@@H](CO)C(=O)N[C@@H](CCCCN)C(=O)N[C@H](C(=O)NCC(=O)N[C@@H](Cc1c[nH]c2ccccc12)C(=O)N[C@@H](CC(C)C)C(=O)N[C@H](C(=O)N[C@@H](Cc1ccccc1)C(=O)N[C@@H](CC(C)C)C(=O)N[C@@H](Cc1ccccc1)C(=O)N[C@@H](Cc1c[nH]cn1)C(=O)N[C@@H](CCCCN)C(=O)N[C@@H](CCCCN)C(=O)O)[C@@H](C)CC)C(C)C)[C@@H](C)CC [BPI.98] (H-IKISGK[1Nal]KAQFRFLKKSKVGWLIFLFHKK-OH)	63,709.98 pmol		1678.4	683		4,384.14 pmol	0.16 ± 0.08	16.5 ± 1.9 µg/mL (≈ 4.62 µM)	b (no detectable activity up to 5 μg/well)			
IKISGKWKAQWRFLK [BPI.77]	b (no detectable activity up to 5 μg/well)		581.7	302		455.08 pmol	10 ± 32	>50 µg/mL	1,684.35 pmol			
CC(C)C[C@H](NC(=O)[C@H](Cc1ccccc1)NC(=O)[C@H](CCCNC(=N)N)NC(=O)[C@H](Cc1cccc2ccccc12)NC(=O)[C@H](Cc1cccc2ccccc12)NC(=O)[C@H](C)NC(=O)[C@H](CCCCN)NC(=O)[C@H](Cc1c[nH]c2ccccc12)NC(=O)[C@H](CCCCN)NC(=O)[C@H](CCCCN)NC(=O)[C@H](CC(C)C)NC(=O)[C@H](Cc1ccccc1)NC(=O)[C@H](CCCNC(=N)N)NC(=O)[C@H](CCCCN)NC(=O)[C@H](CCC(N)=O)NC(=O)[C@H](C)NC(=O)[C@H](CCCCN)NC(=O)[C@H](Cc1c[nH]c2ccccc12)NC(=O)[C@@H](N)CCCCN)C(=O)N[C@@H](CCCCN)C(=O)O [BPI.155] (H-KWKAQKRFLKKWKA[1Nal][1Nal]RFLK-OH; N-terminus and C-terminus assumed)	53,027,986.44 pmol					5,912.26 pmol			5,530,185,440.73 pmol			>100.00
CC(C)C[C@H](NC(=O)[C@H](Cc1ccccc1)NC(=O)[C@H](CCCNC(=N)N)NC(=O)[C@H](CCCCN)NC(=O)[C@H](CCC(N)=O)NC(=O)[C@H](C)NC(=O)[C@H](CCCCN)NC(=O)[C@H](Cc1c[nH]c2ccccc12)NC(=O)[C@H](CCCCN)NC(=O)[C@H](CCCCN)NC(=O)[C@H](CC(C)C)NC(=O)[C@H](Cc1ccccc1)NC(=O)[C@H](CCCNC(=N)N)NC(=O)[C@H](Cc1cccc2ccccc12)NC(=O)[C@H](Cc1cccc2ccccc12)NC(=O)[C@H](C)NC(=O)[C@H](CCCCN)NC(=O)[C@H](Cc1c[nH]c2ccccc12)NC(=O)[C@@H](N)CCCCN)C(=O)N[C@@H](CCCCN)C(=O)O [BPI.154] (H-KWKA[1Nal][1Nal]RFLKKWKAQKRFLK-OH; N-terminus and C-terminus assumed)	2,977.76 pmol					197.00 pmol			30,052,224.71 pmol			>100.00
C[C@@H]1NC(=O)[C@H](CCCCN)NC(=O)[C@H](Cc2c[nH]c3ccccc23)NC(=O)[C@H](CCCCN)NC(=O)[C@@H](N)CSSC[C@@H](C(N)=O)NC(=O)[C@H](Cc2ccccc2)NC(=O)[C@H](CCCNC(=N)N)NC(=O)[C@H](CCCCN)NC(=O)[C@H](CCC(N)=O)NC1=O [BPI.169] (H-CKWKAQKRFC-NH2; disulfide 1-10; N-terminus and C-terminus assumed)	36,025.95 pmol					4,893.83 pmol			17,281.61 pmol			>100.00
KSKVKALIQLFHKK [BPI.161]	b (no detectable activity up to 5 μg/well)					1,201.79 pmol			100,476.32 pmol			3.13
